Reference: PubChem BioAssay (NCI)
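GI50: concentration for 50% inhibition of growth. TGI is the concentration that stops growth completely.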

Columns and labels:
Assay in all cases: NCI tumour cell line growth inhibition, 384-well format
[1] = tested on: 786-0 renal
[2] = tested on: A498 renal
[3] = tested on: A549 NSCLC
[4] = tested on: BT-549 breast
[5] = tested on: CAKI-1 renal
[6] = tested on: COLO 205 colon
[7] = tested on: DU-145 prostate
[8] = tested on: EKVX NSCLC
[9] = tested on: HCC-2998 colon
[10] = tested on: HCT-116 colon
[11] = tested on: HCT-15 colon
[12] = tested on: HOP-62 NSCLC
[13] = tested on: HOP-92 NSCLC
[14] = tested on: HS 578T breast
[15] = tested on: HT29 colon
[16] = tested on: IGROV1 ovarian
[17] = tested on: K-562 leukemia
[18] = tested on: KM12 colon
[19] = tested on: LOX IMVI melanoma
[20] = tested on: M14 melanoma
[21] = tested on: MCF7 breast
[22] = tested on: MDA-MB-231 breast
[23] = tested on: MDA-MB-468 breast
[24] = tested on: MOLT-4 leukemia
[25] = tested on: NCI-H226 lung
[26] = tested on: NCI-H23 lung
[27] = tested on: NCI-H322M lung
[28] = tested on: NCI-H522 lung
[29] = tested on: NCI/ADR-RES ovarian
[30] = tested on: OVCAR-3 ovarian
[31] = tested on: OVCAR-4 ovarian
[32] = tested on: OVCAR-8 ovarian
[33] = tested on: PC-3 prostate
[34] = tested on: RXF 393 renal
[35] = tested on: SF-268 CNS
[36] = tested on: SF-295 CNS
[37] = tested on: SK-MEL-2 melanoma
[38] = tested on: SK-MEL-28 melanoma
[39] = tested on: SK-MEL-5 melanoma
[40] = tested on: SK-OV-3 ovarian
[41] = tested on: SNB-19 CNS
[42] = tested on: SNB-75 CNS
[43] = tested on: SR leukemia
[44] = tested on: SW-620 colon
[45] = tested on: TK-10 renal
[46] = tested on: U251 glioblastoma
[47] = tested on: UACC-62 melanoma

For O=C(NCc1ccncc1)C12CC3CC(C1)CC(c1ccc(Cl)cc1)(C3)C2, the GI50 [1] was 13.4 µM, the TGI [1] was 26.3 µM and the GI50 [2] was 12.7 µM. The TGI [2] was 25.5 µM, the GI50 [3] was 13.6 µM and the TGI [3] was 26.7 µM. It also gave a GI50 [4] of 8.85 µM, a TGI [4] of 21.5 µM and a GI50 [5] of 14.9 µM. The TGI [5] was 28.3 µM, the GI50 [6] was 13.2 µM and the TGI [6] was 26.1 µM. The GI50 [7] was 14.5 µM, the TGI [7] was 27.8 µM and the GI50 [8] was 13.2 µM. For the same compound, the TGI [8] was 26 µM, the GI50 [9] was 11.1 µM and the TGI [9] was 25.2 µM. For the same compound, the GI50 [10] was 9.03 µM, the TGI [10] was 22.7 µM and the GI50 [11] was 11.7 µM. The TGI [11] was 24.9 µM, the GI50 [12] was 16.1 µM and the TGI [12] was 29.7 µM. The GI50 [13] was 10.8 µM, the TGI [13] was 23.1 µM and the GI50 [14] was 11.8 µM. It also gave a TGI [14] of 24.2 µM, a GI50 [15] of 12.1 µM and a TGI [15] of 24.8 µM. The GI50 [16] was 12.1 µM, the TGI [16] was 24.6 µM and the GI50 [17] was 4.94 µM. It also gave a TGI [17] of 16.3 µM, a GI50 [18] of 13.1 µM and a TGI [18] of 25.9 µM. The GI50 [19] was 15.9 µM, the TGI [19] was 29.6 µM and the GI50 [20] was 17.8 µM. For the same compound, the TGI [20] was 31.7 µM, the GI50 [21] was 10.4 µM and the TGI [21] was 23.5 µM. It also gave a GI50 [22] of 11.1 µM, a TGI [22] of 23.5 µM and a GI50 [23] of 5.39 µM. The TGI [23] was 15.1 µM, the GI50 [24] was 4.37 µM and the TGI [24] was 14.7 µM. For the same compound, the GI50 [25] was 14.4 µM, the TGI [25] was 27.6 µM and the GI50 [26] was 11.9 µM. The TGI [26] was 24.6 µM, the GI50 [27] was 17.5 µM and the TGI [27] was 31.5 µM. For the same compound, the GI50 [28] was 11.5 µM, the TGI [28] was 23.9 µM and the GI50 [29] was 9.62 µM. The TGI [29] was 21.8 µM, the GI50 [30] was 10.8 µM and the TGI [30] was 23.7 µM. The GI50 [31] was 13.6 µM, the TGI [31] was 26.5 µM and the GI50 [32] was 13 µM. For the same compound, the TGI [32] was 25.9 µM, the GI50 [33] was 8.88 µM and the TGI [33] was 21.7 µM. For the same compound, the GI50 [34] was 7.13 µM, the TGI [34] was 20 µM and the GI50 [35] was 14.2 µM. It also gave a TGI [35] of 27.3 µM, a GI50 [36] of 14.1 µM and a TGI [36] of 27.2 µM. It also gave a GI50 [37] of 13 µM, a TGI [37] of 25.7 µM and a GI50 [38] of 17.3 µM. The TGI [38] was 31.1 µM, the GI50 [39] was 8.68 µM and the TGI [39] was 21.2 µM. It also gave a GI50 [40] of 16 µM, a TGI [40] of 29.6 µM and a GI50 [41] of 16.3 µM. For the same compound, the TGI [41] was 30 µM, the GI50 [42] was 15 µM and the TGI [42] was 28.3 µM. For the same compound, the GI50 [43] was 5.05 µM, the TGI [43] was 9.66 µM and the GI50 [44] was 13.7 µM. For the same compound, the TGI [44] was 26.8 µM, the GI50 [45] was 14.2 µM and the TGI [45] was 27.4 µM. It also gave a GI50 [46] of 15.3 µM, a TGI [46] of 28.8 µM and a GI50 [47] of 14 µM. The TGI [47] was 27.1 µM.
